Patent US11339130B1 (Blade Therapeutics, Inc., priority 2016, dated 2022)
Read-outs that look alike come from different tables or passages of the source.

Key:
Type in all cases: biochemical
Human Calpain 2/NS1 = target: T1, Human Calpain 2/NS1 (Homo sapiens, UniProt P17655); experiment: Calpain inhibition continuous fluorescence (FRET) assay, Human Calpain 2/NS1; details: read-out: Human Calpain 2/NS1 IC50
T1 sequence (P17655 1-700): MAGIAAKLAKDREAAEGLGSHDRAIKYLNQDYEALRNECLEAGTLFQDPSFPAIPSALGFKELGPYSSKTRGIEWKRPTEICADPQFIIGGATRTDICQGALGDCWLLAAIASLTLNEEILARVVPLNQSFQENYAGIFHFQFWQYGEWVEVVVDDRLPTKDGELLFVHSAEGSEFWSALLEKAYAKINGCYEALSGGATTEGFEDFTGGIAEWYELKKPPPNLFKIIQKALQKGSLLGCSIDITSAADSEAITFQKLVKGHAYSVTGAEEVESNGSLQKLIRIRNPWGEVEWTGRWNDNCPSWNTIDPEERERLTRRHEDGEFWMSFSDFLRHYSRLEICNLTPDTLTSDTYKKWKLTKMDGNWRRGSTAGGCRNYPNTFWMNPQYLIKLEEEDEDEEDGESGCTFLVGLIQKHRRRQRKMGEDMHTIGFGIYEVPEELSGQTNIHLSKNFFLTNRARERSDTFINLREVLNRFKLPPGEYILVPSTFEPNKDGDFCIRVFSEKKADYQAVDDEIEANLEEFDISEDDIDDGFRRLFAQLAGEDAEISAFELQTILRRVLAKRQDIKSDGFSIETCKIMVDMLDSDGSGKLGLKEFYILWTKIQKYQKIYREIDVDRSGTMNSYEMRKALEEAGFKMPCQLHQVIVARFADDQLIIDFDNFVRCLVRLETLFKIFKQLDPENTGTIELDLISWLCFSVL
T1 sequence (P04632 1-268 partner): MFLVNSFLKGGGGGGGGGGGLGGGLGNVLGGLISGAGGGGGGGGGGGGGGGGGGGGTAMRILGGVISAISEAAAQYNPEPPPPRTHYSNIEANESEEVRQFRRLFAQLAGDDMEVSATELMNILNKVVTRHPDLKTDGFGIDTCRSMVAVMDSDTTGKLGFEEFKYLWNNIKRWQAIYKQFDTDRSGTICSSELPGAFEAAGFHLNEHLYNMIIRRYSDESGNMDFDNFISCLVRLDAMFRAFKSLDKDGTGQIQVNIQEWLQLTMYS
How it was run: (§1)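 Inhibitors were preincubated with calpain in 50 mM Tris pH 7.5, 100 mM NaCl, 1 mM DTT at 25C. Reactions were started with 5-FAM/QXL 520 FRET peptide substrate plus CaCl2 and read at 490/520 nm for 10 min. IC50s came from 4-parameter fits of slope rates (1-5 min).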

Human Calpain 1/NS1 = target: T2, Human Calpain 1/NS1 (Homo sapiens, UniProt P07384); experiment: Calpain inhibition continuous fluorescence (FRET) assay, Human Calpain 1/NS1; details: read-out: Human Calpain 1/NS1 IC50
T2 sequence (P07384 1-714): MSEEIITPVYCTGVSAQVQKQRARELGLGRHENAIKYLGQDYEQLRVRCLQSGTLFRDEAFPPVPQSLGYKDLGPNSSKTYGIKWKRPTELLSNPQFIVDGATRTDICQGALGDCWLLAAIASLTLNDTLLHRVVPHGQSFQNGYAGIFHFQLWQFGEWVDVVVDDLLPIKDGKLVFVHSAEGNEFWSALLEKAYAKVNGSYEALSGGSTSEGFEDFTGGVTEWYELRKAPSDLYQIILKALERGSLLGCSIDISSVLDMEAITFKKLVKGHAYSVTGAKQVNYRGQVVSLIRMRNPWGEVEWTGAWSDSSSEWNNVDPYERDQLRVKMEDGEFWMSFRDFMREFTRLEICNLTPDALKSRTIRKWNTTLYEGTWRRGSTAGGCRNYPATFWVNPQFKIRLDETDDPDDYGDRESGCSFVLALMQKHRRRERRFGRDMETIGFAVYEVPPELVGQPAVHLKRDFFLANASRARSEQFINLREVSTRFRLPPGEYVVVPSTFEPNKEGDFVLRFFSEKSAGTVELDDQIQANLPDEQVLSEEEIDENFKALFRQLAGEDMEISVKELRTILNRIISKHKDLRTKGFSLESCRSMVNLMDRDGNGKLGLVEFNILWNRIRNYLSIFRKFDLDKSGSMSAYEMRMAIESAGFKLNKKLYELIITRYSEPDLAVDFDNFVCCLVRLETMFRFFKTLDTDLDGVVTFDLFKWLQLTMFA
T2 sequence (P04632 1-268 partner): T1 sequence (P04632 1-268 partner)
How it was run: as §1

Human Calpain 9/NS1 = target: T3, Human Calpain 9/NS1 (Homo sapiens, UniProt O14815); experiment: Calpain inhibition continuous fluorescence (FRET) assay, Human Calpain 9/NS1; details: read-out: Human Calpain 9/NS1 IC50
T3 sequence (O14815 1-690): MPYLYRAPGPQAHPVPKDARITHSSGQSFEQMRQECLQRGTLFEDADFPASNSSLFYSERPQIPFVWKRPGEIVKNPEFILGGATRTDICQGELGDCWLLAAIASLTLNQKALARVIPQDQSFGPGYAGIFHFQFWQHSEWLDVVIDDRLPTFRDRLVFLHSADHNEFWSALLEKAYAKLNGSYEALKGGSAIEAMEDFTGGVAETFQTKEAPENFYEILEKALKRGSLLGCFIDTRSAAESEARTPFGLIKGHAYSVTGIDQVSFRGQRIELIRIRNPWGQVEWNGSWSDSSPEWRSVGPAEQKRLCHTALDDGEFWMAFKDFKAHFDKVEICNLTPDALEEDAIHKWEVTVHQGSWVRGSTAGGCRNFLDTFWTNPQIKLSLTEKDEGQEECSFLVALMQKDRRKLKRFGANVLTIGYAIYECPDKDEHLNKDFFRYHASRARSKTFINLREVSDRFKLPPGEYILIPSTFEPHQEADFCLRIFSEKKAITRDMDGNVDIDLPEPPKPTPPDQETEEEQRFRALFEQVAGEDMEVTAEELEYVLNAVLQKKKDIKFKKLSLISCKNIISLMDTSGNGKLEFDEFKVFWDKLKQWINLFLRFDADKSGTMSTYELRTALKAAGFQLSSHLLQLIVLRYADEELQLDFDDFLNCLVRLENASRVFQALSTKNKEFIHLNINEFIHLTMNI
T3 sequence (P04632 1-268 partner): T1 sequence (P04632 1-268 partner)
How it was run: as §1

Row | SMILES | IC50 (Human Calpain 2/NS1; Column B) | IC50 (Human Calpain 1/NS1; Column A) | IC50 (Human Calpain 9/NS1; Column C) | IC50 (Human Calpain 2/NS1) | IC50 (Human Calpain 1/NS1) | IC50 (Human Calpain 9/NS1)
1 | NC(=O)C(=O)[C@H](Cc1ccccc1)NC(=O)c1conc1-c1ccccc1 [Compound 304, (S)—N-(4-amino-3,4-dioxo-1-phenylbutan-2-yl)-3-phenylisoxazole-4-carboxamide] | < 3 µM | < 3 µM | < 3 µM | – | – | –
2 | Cc1nc(C(=O)NC(Cc2ccccc2)C(=O)C(N)=O)c(-c2ccccn2)o1 (stereo not drawn) [Compound 314, N-(4-amino-3,4-dioxo-1-phenylbutan-2-yl)-2-methyl-5-(pyridin-2-yl)oxazole-4-carboxamide] | – | – | – | 3 to 10 µM | 3 to 10 µM | 3 to 10 µM
3 | Cn1cc(C(=O)NC(Cc2ccccc2)C(=O)C(N)=O)c(-c2ccc(C(F)(F)F)nc2)n1 (stereo not drawn) [Compound 315, N-(4-amino-3,4-dioxo-1-phenylbutan-2-yl)-1-methyl-3-(6-(trifluoromethyl)pyridin-3-yl)-1H-pyrazole-4-carboxamide] | – | – | – | 3 to 10 µM | 3 to 10 µM | < 3 µM
4 | Cc1cccc(-c2nn(C)cc2C(=O)NC(Cc2ccccc2)C(=O)C(N)=O)n1 (stereo not drawn) [Compound 316, N-(4-amino-3,4-dioxo-1-phenylbutan-2-yl)-1-methyl-3-(6-methylpyridin-2-yl)-1H-pyrazole-4-carboxamide] | – | – | – | > 10 µM | > 10 µM | 3 to 10 µM
5 | Cc1ncc(C(=O)NC(Cc2ccccc2)C(=O)C(N)=O)n1-c1ccccc1 (stereo not drawn) [Compound 318, N-(4-amino-3,4-dioxo-1-phenylbutan-2-yl)-2-methyl-1-phenyl-1H-imidazole-5-carboxamide] | – | – | – | 3 to 10 µM | < 3 µM | < 3 µM
6 | Cn1cc(C(=O)NC(Cc2ccccc2)C(=O)C(N)=O)c(C(=O)c2ccccc2)n1 (stereo not drawn) [Compound 395, N-(4-amino-3,4-dioxo-1-phenylbutan-2-yl)-3-benzoyl-1-methyl-1H-pyrazole-4-carboxamide] | – | – | – | 3 to 10 µM | > 10 µM | 3 to 10 µM
7 | NC(=O)C(=O)C(Cc1ccccc1)NC(=O)c1c(C(F)(F)F)cnn1-c1ncccn1 (stereo not drawn) [Compound 410, N-(4-amino-3,4-dioxo-1-phenylbutan-2-yl)-1-(pyrimidin-2-yl)-4-(trifluoromethyl)-1H-pyrazole-5-carboxamide] | – | – | – | 3 to 10 µM | 3 to 10 µM | 3 to 10 µM
8 | Cn1cc(C(=O)NC(Cc2ccccc2)C(=O)C(N)=O)c(-c2n[nH]c3ccccc23)n1 (stereo not drawn) [Compound 482, N-(4-amino-3,4-dioxo-1-phenylbutan-2-yl)-3-(1H-indazol-3-yl)-1-methyl-1H-pyrazole-4-carboxamide] | – | – | – | 3 to 10 µM | 3 to 10 µM | < 3 µM
9 | Cn1ncc(C(=O)NC(Cc2ccccc2)C(=O)C(N)=O)c1Cc1ccccc1 (stereo not drawn) [Compound 488, N-(4-amino-3,4-dioxo-1-phenylbutan-2-yl)-5-benzyl-1-methyl-1H-pyrazole-4-carboxamide] | – | – | – | 3 to 10 µM | 3 to 10 µM | 3 to 10 µM
10 | Cc1cnc(C(=O)NC(Cc2ccccc2)C(=O)C(N)=O)n1-c1ccccc1 (stereo not drawn) [Compound 490, N-(4-amino-3,4-dioxo-1-phenylbutan-2-yl)-5-methyl-1-phenyl-1H-imidazole-2-carboxamide] | – | – | – | 3 to 10 µM | > 10 µM | < 3 µM

Next, values leading:

Row | IC50 (Human Calpain 2/NS1; Column B) | IC50 (Human Calpain 1/NS1; Column A) | IC50 (Human Calpain 9/NS1; Column C) | IC50 (Human Calpain 2/NS1) | IC50 (Human Calpain 1/NS1) | IC50 (Human Calpain 9/NS1) | SMILES
11 | – | – | – | < 3 µM | < 3 µM | < 3 µM | NC(=O)C(=O)[C@H](Cc1ccccc1)NC(=O)c1cc2ccccc2n1-c1ccccc1 [Compound 307, (S)—N-(4-amino-3,4-dioxo-1-phenylbutan-2-yl)-1-phenyl-1H-indole-2-carboxamide]
12 | – | – | – | < 3 µM | < 3 µM | < 3 µM | CCn1ncc(Cl)c1C(=O)N[C@@H](Cc1ccccc1)C(=O)C(N)=O [Compound 311, (S)—N-(4-amino-3,4-dioxo-1-phenylbutan-2-yl)-4-chloro-1-ethyl-1H-pyrazole-5-carboxamide]
13 | – | – | – | < 3 µM | < 3 µM | < 3 µM | Cc1cn(-c2ccccc2)c(C(=O)N[C@@H](Cc2ccccc2)C(=O)C(N)=O)n1 [Compound 319, (S)—N-(4-amino-3,4-dioxo-1-phenylbutan-2-yl)-4-methyl-1-phenyl-1H-imidazole-2-carboxamide]
14 | – | – | – | < 3 µM | < 3 µM | 3 to 10 µM | NC(=O)C(=O)C(Cc1ccccc1)NC(=O)c1conc1-c1ncccn1 (stereo not drawn) [Compound 324, N-(4-amino-3,4-dioxo-1-phenylbutan-2-yl)-3-(pyrimidin-2-yl)isoxazole-4-carboxamide]
15 | – | – | – | < 3 µM | < 3 µM | < 3 µM | Cc1nc(-c2ccccc2)c(C(=O)NC(Cc2cc(Cl)cc(Cl)c2)C(=O)C(N)=O)o1 (stereo not drawn) [Compound 390, N-(4-amino-1-(3,5-dichlorophenyl)-3,4-dioxobutan-2-yl)-2-methyl-4-phenyloxazole-5-carboxamide]
16 | – | – | – | < 3 µM | < 3 µM | < 3 µM | Cc1nc(-c2ccccc2)c(C(=O)N[C@@H](CC(C)(C)C)C(=O)C(N)=O)o1 [Compound 391, (S)—N-(1-amino-5,5-dimethyl-1,2-dioxohexan-3-yl)-2-methyl-4-phenyloxazole-5-carboxamide]
17 | – | – | – | < 3 µM | < 3 µM | < 3 µM | Cc1cc(C(=O)NC(Cc2ccccc2)C(=O)C(N)=O)n(-c2ccncn2)n1 (stereo not drawn) [Compound 409, N-(4-amino-3,4-dioxo-1-phenylbutan-2-yl)-3-methyl-1-(pyrimidin-4-yl)-1H-pyrazole-5-carboxamide]
18 | – | – | – | < 3 µM | < 3 µM | < 3 µM | Cc1cc(C(=O)NC(Cc2ccccc2)C(=O)C(N)=O)c(-c2nc3ccccc3[nH]2)s1 (stereo not drawn) [Compound 429, N-(4-amino-3,4-dioxo-1-phenylbutan-2-yl)-2-(1H-benzo[d]imidazol-2-yl)-5-methylthiophene-3-carboxamide]
19 | – | – | – | < 3 µM | 3 to 10 µM | < 3 µM | COc1cccc(-c2nn(C)cc2C(=O)NC(Cc2ccccc2)C(=O)C(N)=O)n1 (stereo not drawn) [Compound 487, N-(4-amino-3,4-dioxo-1-phenylbutan-2-yl)-3-(6-methoxypyridin-2-yl)-1-methyl-1H-pyrazole-4-carboxamide]
